According to US20090076050A1, “SYNERGISTIC TUMOR-KILLING EFFECT OF RADIATION AND BERBERINE COMBINED TREATMENT IN LUNG CANCER” (CHUNG SHAN MEDICAL U., priority 2007, published 2009):

Key:
Format in all cases: cell-based, human
[1] = tested on: A549 cells; assay: clonogenic survival assay (linear-quadratic model)
Protocol: Cells were cultured in phenol-red-free medium and irradiated with a […] (Varian, 21-EX). The radiation was delivered as a single dose ranging from 2 to 8 Gy in an appropriate field size at a dose rate of 400 cGy/min. A 3-cm polystyrene block was used under the petri dishes during each irradiation to allow homogeneous backscattering radiation. Control cells were removed from the incubator and placed for the same period of time under the IR source but without radiation treatment. In the combined treatment mortality tests, berberine was added 2 h prior to irradiation.
The enhancing effect of berberine on radio-sensitivity in NSCLC was performed by treating A549 with various concentrations of berberine alone or combined with different dose of IR at 37° C. for 24 h or 48 h followed by MTT assay for cell viability analysis. Thereafter, the medium was changed and incubated with 100 μl MTT (Sigma St Louis, Mo.)/well for 4 h, which was solubilized in isopropanol, and measured spectrophotometrically at 563 nm. […] To further ascertain the effect of berberine on the lethality of IR, clonogenic survival assay was performed to examine long term survival. IR or berberine-treated cells (1000 cells) were plated onto 10 cm tissue culture dish in five replicates. After 14 days, colonies were fixed with methanol, stained with 0.25% crystal violet, and counted if they were consisted of more than 50 cells. The fraction of colonies survived from the irradiation was normalized to that of the corresponding control. The curves were fitted to the data using linear-quadratic model. The data were depicted in FIG. 1C after normalization.
Statistical significances were analyzed by student t-test or one-way analysis of variance (ANOVA) with post-hock Dunnett's test. P-value≦0.05 was considered statistically significant (Sigma-Stat 2.0, San Rafael, Calif., USA). Survival fraction curve was analyzed by KaleigaGraph 4.0 then fitted to the data using linear-quadratic model. Combination index was analyzed by CalcuSyn.

[2] = tested on: LC3-II in A549 cells; assay: immunoblotting for LC3-I, LC3-II; settings: 24 h after IR combined with increasing concentrations of berberine
Protocol: The role of apoptosis in the sensitivity of A549 cells to IR induced by berberine was further clarified by DAPI stain. DNA extraction and electrophoresis on agarose gel were carried out as described previously (Solary E, et al. Therapie 2001; 56:511-18). After the indicated treatments, cells were fixed with 3 mL of 4% paraformaldehyde. To stain the cells, 500 μL of a 0.5 μg/mL chilled solution of DAPI (Invitrogen) stain was added and allowed to sit for 5 min. The cells were then rinsed with PBS solution and counted under a fluorescent microscope. For positive control of DNA fragmentation and DAPI stain, A549 cells were treated with 30 μM etoposide for 24 h. […] This contention was further confirmed by the lack of apoptotic DNA fragmentation and activation of caspase-3 and poly-(ADP-ribose) polymerases (PARP) as analyzed by DNA electrophoresis and immunoblotting (FIG. 3B, 3C). After the indicated treatment, the resultant supernatants were separated in 12%˜18% polyacrylamide gels. The blot was incubated with a polyclonal antibody against LC3 (gift from T. Yoshimori), PARP, caspase-3, bcl-2, beclin-1 and β-actin (Santa Cruz biotechnology, USA) for 2 h, and then with an appropriate peroxidase-conjugated secondary antibody (Sigma) for 1 h at 37° C. […] LC3 is localized in autophagosome membranes during amino acid starvation-induced autophagy (Mizushima N, et al. J Cell Biol 2001; 152:657-68.). […]

[3] = tested on: A549 cells; assay: mitochondrial membrane potential by JC-1 flow cytometry; settings: 1.0, 2.5, 5.0 and 10 μM berberine combined with irradiation (6 Gy), 24 h
Protocol: Berberine has been reported to induce cell death in several cancer cells via mitochondrial disruption (Lin J P, et al. World J Gastroenterol 2006; 12:21-28.). Therefore, mitochondrial membrane potential was next measured with JC-1. Mitochondria membrane potential (Δ Ψm), the lipophilic cationic probe fluorochrome JC-1 (Invitrogen) was used. […] After a treatment of radiation (6 Gy) for 24 h in the absence or presence of 1.0-10 μM berberine, cells were rinsed with DMEM, and JC-1 (5 μmol/L) was loaded. Determination of Δ Ψm was also carried out with a FACScan Flow Cytometer. […] It has been reported that depolarized mitochondria would move into autophagic vacuoles in response to appropriate stimulation; thus, mitochondria dysfunction may be a point of overlap between apoptotic and autophagocytic processes (Bras M, et al. Biochemistry (Mosc) 2005; 70:231-39). […] On the other hand, beclin-1 siRNA and 3-MA (autophagy inhibitor) blocked the cell death induced by 5.0 μM berberine combined with 6 Gy IR (p<0.001). As a consequence, berberine sensitized A549 cells to IR damage via inducing autophagic cell death.

COc1ccc2cc3[n+](cc2c1OC)CCc1cc2c(cc1-3)OCO2 [berberine, Berberine]
decrease in the D0 value ([1]; 10 μM berberine vs IR alone): 4.2 fold | D0 (dose of radiation producing a 37% survival rate) ([1]; IR + 2.5 μM berberine): 4.01 Gy | SF2 ([1]; IR + 2.5 μM berberine): 0.3184 | D0 (dose of radiation producing a 37% survival rate) ([1]; IR + 5.0 μM berberine): 2.70 Gy | SF2 ([1]; IR + 5.0 μM berberine): 0.2152 | D0 (dose of radiation producing a 37% survival rate) ([1]; IR + 10 μM berberine): 1.24 Gy | SF2 ([1]; IR + 10 μM berberine): 0.0991 | expression of LC3-II [2]: increased dose-dependently | mitochondrial membrane potential (JC-1) [3]: great loss of membrane potential
